From patent US20230174933A1, “METHODS OF MAKING CHIMERIC ANTIGEN RECEPTOR-EXPRESSING CELLS” (Novartis AG, priority 2020, published 2023)

Columns and labels:
T cells = assay: T cell expansion with cytokines after αCD3/αCD28 bead stimulation; format: cell-based
Procedure: Previously frozen T cells were thawed and contacted with αCD3/αCD28 dynal beads (cell to bead ratio of 1 to 3) in the presence of indicated cytokines at day 0. From day 3, twice more T cell growth media (RPMI1640, 10% FBS, 2 mM L-glutamin, 100 μM non-essential amino acids, 1 mM sodium pyruvate, 10 mM Hepes, 55 μM β-mercaptoethanol, 10% FBS, and 100 U/ml of penicillin-streptomycin) was added to the plate with indicated cytokines (without cytokine, rhIL2 (50 IU/ml, Novartis), IL6 (long/ml, R&D systems), IL7 (long/ml, Peprotech), IL15 (long/ml, Peprotech), and IL21 (long/ml, Peprotech)) at day 3, 5, 6, 9, 12, 15, and 18.
Cells were harvested at indicated time points and then stained with live/dead dye (eFluro780, eBioscience), CD3 (BioLegend, clone#: OKT3), CD4 (BioLegend, clone#: OKT4), CD8 (BD Bioscience, clone#: RPA-T8), CD45RO (BioLegend, clone#: UCHL1), CCR7 (BioLegend, clone#: G043H7), CD27 (BD Horizon, clone#: L128), CD127 (BioLegend, clone#: A019D5), CD57 (BioLegend, clone#: HCD57), CD126 (BioLegend, clon#: UV4), and CD130 (R&D Systems, clone#: 28126) antibodies. The cells were acquired by FACS Fortessa and then FlowJo program was used for data analysis.

[1] = tested on: T cells activated with αCD3αCD28 beads; assay: Fold expansion, cell size and viability of cytokine treated T cells after TCR engagement; format: cell-based; details: T cells activated with αCD3αCD28 beads at day 0 in the presence of cytokine
Source text: FIG. 12: Fold expansion of cytokine treated T cells after TCR engagement. T cells were activated with αCD3αCD28 beads at day 0 in the presence of indicated cytokines and then monitored for cell numbers at indicated time points.
T cells were activated with αCD3αCD28 beads at day 0 in the presence of indicated cytokines and then monitored for cell size (FIG. 13A) and viability (FIG. 13B) at indicated time points.

BCMA-CAR = assay: ARM-BCMA CAR expression kinetics in vitro with or without AZT (FACS); format: cell-based; details: AZT 30 μM and 100 μM
Procedure: In contrast to TM which measures lentiviral integration of the CAR transgene after 8-9 days, in the ARM process, the lentiviral transgene may not be fully integrated and truly expressed within 24 h post lentiviral addition, as lentiviral pseudotransduction could occur (Haas D L, et al., (2000) Mol Ther; 2(1):71-80; Galla M, et al., (2004) Mol Cell; 16(2):309-15). […] Flow cytometry (FACS) analyses were performed to detect CAR surface expression at 24 h, 48 h, 72 h, 96 h and 168 h post T cell activation and transduction with the lentiviral vector. In some cases, ARM-BCMA CAR and an aliquot of this product were frozen down immediately upon harvest for additional characterization in other assays.

[2] = biological target: T1, BCMA (TNFRSF17) of the commercial human plasma membrane protein array (human, UniProt Q02223 1-184, limits assumed); assay: commercial human plasma membrane protein array
T1 sequence (looked up): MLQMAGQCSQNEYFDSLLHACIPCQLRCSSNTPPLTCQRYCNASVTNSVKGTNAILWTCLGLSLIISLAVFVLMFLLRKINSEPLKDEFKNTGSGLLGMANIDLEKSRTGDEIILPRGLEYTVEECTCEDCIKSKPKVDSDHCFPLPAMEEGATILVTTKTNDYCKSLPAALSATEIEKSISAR

IL15: cytokine
expansion of IL6Rβ expressing cells (T cells): enhanced expansion of IL6Rβ expressing cells | T cell expansion (T cells; αCD3/αCD28 bead stimulated T cells plus cytokine): showing the greatest enhancement | cell size [1]: did not affect | viability [1]: did not affect

Cc1cn([C@H]2C[C@H](N=[N+]=[N-])[C@@H](CO)O2)c(=O)[nH]c1=O [AZT, 3′-azido-3′-deoxythymidine]
inhibition of CAR expression (BCMA-CAR): effectively inhibit CAR expression

B1: anti-human BCMA single chain antibody variable fragment (scFv) (PI61) (scFv)
scFv: QVQLQESGGGVVQPGRSLRLSCAASGFTFSSYGMHWVRQAPGKGLEWVAVISYDGSNKYYADSVKGRFTISRDNSKNTLYLQMNSLRAEDTAVYYCGGSGYALHDDYYGLDVWGQGTLVTVSSGGGGSGGGGSGGGGSQSALTQPASVSGSPGQSITISCTGTSSDVGGYNYVSWYQQHPGKAPKLMIYDVSNRPSGVSNRFSGSKSGNTASLTISGLQAEDEADYYCSSYTSSSTLYVFGSGTKVTVL
notes: also called PI61 scFv
binding result [2]: binds
